In ChEMBL document CHEMBL1201862, “PubChem BioAssay data set” (2004):
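Step 1: Grow cells in 96-well plates. Step 2: Expose to compound for 48 hours at 5 concentrations. Step 3: Interpolate endpoints linearly; if unreached, use highest concentration. GI50 is the concentration that inhibits growth by half.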 Activity calls are given as the source filed them. Rule as the data show it: active = GI50 up to about 1.1 µM and inactive = higher.

Experiments:
Assay in all cases: growth of human tumour cells (NCI), 48 h
HL-60 = tested on: HL-60
SK-MEL-28 = tested on: SK-MEL-28
MOLT-4 = tested on: MOLT-4
LOX IMVI = tested on: LOX IMVI
SF-268 = tested on: SF-268
MDA-N = tested on: MDA-N
CAKI-1 = tested on: CAKI-1
NCI-H23 = tested on: NCI-H23
SF-539 = tested on: SF-539
HCT-15 = tested on: HCT-15
SNB-75 = tested on: SNB-75
PC-3 = tested on: PC-3
OVCAR-5 = tested on: OVCAR-5
SK-MEL-2 = tested on: SK-MEL-2
UACC-257 = tested on: UACC-257
HOP-92 = tested on: HOP-92
SK-MEL-5 = tested on: SK-MEL-5
MDA-MB-231 = tested on: MDA-MB-231
COLO 205 = tested on: COLO 205
BT-549 = tested on: BT-549

Structure (SMILES)	GI50 (HL-60)	GI50 (SK-MEL-28)	GI50 (MOLT-4)	GI50 (LOX IMVI)	GI50 (SF-268)	GI50 (MDA-N)	GI50 (CAKI-1)	GI50 (NCI-H23)	GI50 (SF-539)	GI50 (HCT-15)	GI50 (SNB-75)	GI50 (PC-3)	GI50 (OVCAR-5)	GI50 (SK-MEL-2)	GI50 (UACC-257)	GI50 (HOP-92)	GI50 (SK-MEL-5)	GI50 (MDA-MB-231)	GI50 (COLO 205)	GI50 (BT-549)
COc1ccccc1NC(=S)N/N=C/c1ccccn1	0.0214 µM (active)	1.56 µM (inactive)	0.0115 µM (active)	0.0927 µM (active)	0.191 µM (active)	1.29 µM (inactive)	0.0817 µM (active)	0.0746 µM (active)	0.91 µM (active)	0.227 µM	3.37 µM (inactive)	0.054 µM (active)	0.288 µM (active)	2.54 µM (inactive)	< 0.0318 µM (active)	1.26 µM (inactive)	0.252 µM (active)	< 0.0166 µM (active)	0.0352 µM (active)	1.77 µM (inactive)
C/C=C(/C)C(=O)O[C@H]1C(C)=C[C@]23C(=O)[C@@H](C=C(COC(C)=O)[C@@H](O)[C@]12O)[C@H]1[C@@H](C[C@H]3C)[C@@]1(C)OC(=O)/C(C)=C\C	0.094 µM (active)	3.69 µM (inactive)	0.0449 µM (active)	3.1 µM (inactive)	0.655 µM (active)	1.17 µM (inactive)	2.75 µM (inactive)	2.42 µM (inactive)	2.81 µM (inactive)	2.96 µM	1.52 µM (inactive)	1.4 µM (inactive)	3.15 µM (inactive)	3 µM (inactive)	3.63 µM (inactive)	1.25 µM (inactive)	0.307 µM (active)	3.03 µM (inactive)	0.0596 µM (active)	2.38 µM (inactive)
C[C@]12CC[C@H]3[C@@H](CCC4=CC(=O)C=C[C@@]43OC(=O)C(F)(F)F)[C@@H]1CCC2=O	> 100 µM (inactive)	> 100 µM (inactive)	> 95.5 µM (inactive)	> 100 µM (inactive)	> 100 µM (inactive)	> 100 µM (inactive)	> 100 µM (inactive)	> 100 µM (inactive)	> 100 µM (inactive)	> 100 µM	> 100 µM (inactive)	> 100 µM (inactive)	> 100 µM (inactive)	> 100 µM (inactive)	> 100 µM (inactive)	> 100 µM (inactive)	> 100 µM (inactive)	> 100 µM (inactive)	> 100 µM (inactive)	> 100 µM (inactive)
Nc1nc(Cl)cc(NCC2(CO)COC2)n1	> 100 µM (inactive)	> 100 µM (inactive)	> 10 µM (inactive)	> 100 µM (inactive)	> 100 µM (inactive)	> 100 µM (inactive)	> 100 µM (inactive)	> 100 µM (inactive)	> 100 µM (inactive)	> 100 µM	> 100 µM (inactive)	> 100 µM (inactive)	> 100 µM (inactive)	> 100 µM (inactive)	> 100 µM (inactive)	> 10 µM (inactive)	> 100 µM (inactive)	> 100 µM (inactive)	> 100 µM (inactive)	> 100 µM (inactive)
